The values that follow are results of earlier work, collected in patent US12029798B2, “Pre-targeting strategies for molecular imaging and/or radioimmunotherapy” (UNIVERSITY OF PITTSBURGH—OF THE COMMONWEALTH SYSTEM OF …, priority 2016, dated 2024).

The conditions of the data set: reaction with azides.

As for oxa-dibenzocyclooctynes [ODIBO], the cycloaddition rate is 43 M^−1S^−1.
